How the values were obtained:
[1] = The compound was tested for free energy change at binding to DNA; type: ADME
[2] = The compound was tested for Binding constant against DNA; type: ADME
[3] = tested on: HCT-116; assay: Cytotoxicity against human colon cancer cells (HCT116); type: functional, cell-based
[4] = tested on: DLD-1; assay: Cytotoxicity against human colon cancer cells (DLD-1); type: functional, cell-based
[5] = tested on: P388; assay: Cytotoxicity against murine leukemia cell line (P388); type: functional, cell-based; conditions: Mus musculus
[6] = tested on: MKN-45; assay: Cytotoxicity against human gastric cancer cells (MKN-45); type: functional, cell-based; conditions: MKN-45, Stomach

Compound	-Delta G obs [1] [kcal/mol]	K/10e4 [2] [M⁻¹]	IC50 [3] [µM]	IC50 [4] [µM]	IC50 [5] [µM]	IC50 [6] [µM]
O=C1c2c(c3c4cccc(O)c4n(C4OC(CO)C(O)C(O)C4O)c3c3[nH]c4c(O)cccc4c23)C(=O)N1NC(CO)CO (centres undefined)	6.56	8.19	0.032			
O=CNN1C(=O)c2c(c3c4cccc(O)c4n(C4OC(CO)C(O)C(O)C4O)c3c3[nH]c4c(O)cccc4c23)C1=O (centres undefined)	5.91	2.64	0.12	2.1	0.062	0.39

From ChEMBL document CHEMBL1132653, “Substitution at the F-ring N-imide of the indolocarbazole antitumor drug NB-506 increases the cytotoxicity, DNA binding, and topoisomerase I inhibition activities” (J Med Chem, 1999)
